Laboratory results as given in patent publication US20260256786A1 (United Therapeutics Corporation, priority 2020, published 2026).
Like-named read-outs stand apart in the source and are kept apart here.

Assays:
[1] = Pharmacokinetics of insufflated ImaT powder in rat: lung sections; format: in vivo, Sprague Dawley rats; details: for concentration at 0.08 h / concentration at 1 h / concentration at 4 h / concentration at 8 h: male, Sprague Dawley, rat, lung, inhaled, 4 mg/kg
Experimental: Lungs were also harvested at specified time points (see Table 4). […] Lungs werethen harvested. The left lobe was sectioned into three parts; upper, middle and bottom. Each section was separated into two equal pieces. Each piece was weighed and individually placed in a properly labeled tube. Lungs samples were snap-frozen and stored at −80° C. Lung samples were then homogenized in PBS, 0.1% Triton X-100 (200 mg of tissue/mL). The homogenate samples were stored at −80° C.

[2] = ImaT 4 mg/kg insufflation, 24 h time point
Experimental: After dosing, blood samples and lungs were collected at specific time points over a period of 24 hours.
The rats were anesthetized with a mixture of 1.5 to 3% isoflurane USP (Abbott Laboratories, Montreal Canada) in 100% oxygen, and placed on a homoeothermic heating pad to maintain body temperature at 37±1° C.
For all groups, the test article was insufflated using an automated insufflation device. The insufflator tip was inserted just above the bifurcation of the trachea and the discharge of powder was timed to the inhalation cycle of the animal. After dosing, the animals were allowed to recover from anesthesia under surveillance before being returned to their respective cages.
Blood samples of 0.5 mL were collected from the jugular vein at specified time points (see Table 4).
Blood samples were centrifuged (3000 r.p.m. for 10 min., 2-8° C.) and plasma was transferred into an Eppendorf tube labeled with the Study Number, animal I.D., dose group and time point.
For each group, data in this report is expressed as mean±S.E.M.

[3] = section 1 (homogenate), read-out: Lung conc, Section 1
[4] = section 2 (homogenate), read-out: Lung conc, Section 2
[5] = section 3 (homogenate), read-out: Lung conc, Section 3
[6] = section 4 (homogenate), read-out: Lung conc, Section 4
[7] = section 5 (homogenate), read-out: Lung conc, Section 5
[8] = section 6 (homogenate), read-out: Lung conc, Section 6

Imatinib concentrations in the lung ([1]; ImaT 4 mg/kg insufflation, 24 hour time point): below the limit of detection
concentration at 0.08 h [1, 3]: 0.201 µg/mL
concentration at 1 h [1, 3]: 0.26 µg/mL
concentration at 4 h [1, 3]: 0.062 µg/mL
concentration at 8 h [1, 3]: 0.0272 µg/mL
concentration at 0.08 h [1, 4]: 1.53 µg/mL
concentration at 1 h [1, 4]: 0.638 µg/mL
concentration at 4 h [1, 4]: 0.051 µg/mL
concentration at 8 h [1, 4]: 0.0244 µg/mL
concentration at 0.08 h [1, 5]: 0.889 µg/mL
concentration at 1 h [1, 5]: 0.307 µg/mL
concentration at 4 h [1, 5]: 0.0559 µg/mL
concentration at 8 h [1, 5]: 0.0211 µg/mL
concentration at 0.08 h [1, 6]: 3 µg/mL
concentration at 1 h [1, 6]: 0.51 µg/mL
concentration at 4 h [1, 6]: 0.0684 µg/mL
concentration at 8 h [1, 6]: 0.0246 µg/mL
concentration at 0.08 h [1, 7]: 2.58 µg/mL
concentration at 1 h [1, 7]: 0.196 µg/mL
concentration at 4 h [1, 7]: 0.0696 µg/mL
concentration at 8 h [1, 7]: 0.0221 µg/mL
concentration at 0.08 h [1, 8]: 4.74 µg/mL
concentration at 1 h [1, 8]: 0.314 µg/mL
concentration at 4 h [1, 8]: 0.0663 µg/mL
concentration at 8 h [1, 8]: 0.0246 µg/mL
Time of maximal lung concentration of Imatinib ([1]; post-inhalation of ImaT): 5 min
Plasma concentration of Imatinib [2]: below the limit of detection
Compound: Cc1ccc(NC(=O)c2ccc(CN3CCN(C)CC3)cc2)cc1Nc1nccc(-c2cccnc2)n1 [Imatinib, 4-[(4-methylpiperazin-1-yl)methyl]-N-[4-methyl-3-[(4-pyridin-3-ylpyrimidin-2-yl)amino]phenyl]benzamide]
